Reference: patent US7399639B2, “Sensors, and methods of making and using the same” (Massachusetts Institute of Technology, priority 2003, dated 2008)
“And” between values parts separate entries of the source, which are not always exact repeats. Identical values can stand only once. Like-named read-outs stand apart in the source and are kept apart here.

Experiments:
[1] = Zn(II) binding studies (fluorescence spectroscopy), dual-metal buffering system, Zinpyr dyes; settings: titration with dual-metal buffering system, 0.17 nM to 25 nM free Zn(II)
Description: General Spectroscopic Methods. PIPES (piperazine-N,N′-bis(2-ethanesulfonic acid) from Calbiochem, KCl (99.997%), and ZnCl2 (99.999%) are purchased and used as received. All experiments for this Example Eight, with the exception of the pKa experiment, are conducted under stimulated physiological conditions using 50 mM PIPES, 100 mM KCl adjusted to pH 7 via drop-wise addition of KOH. Millipore water is used for all aqueous solutions, which are filtered through a 0.2 μm cellulose filter prior to use (buffered dye solutions should not be put through the filters because the dyes will get stuck). An Orion glass electrode, which is calibrated prior to each use, is used to determine solution pH. The accuracy of each micropipette is verified prior to use. Zinc solutions are prepared from 100 mM and 10 mM stock solutions in water (pH 5). […] The equivalence point at 321 nm and at 291 nm is determined and used to calculate the Zn(II) concentration. […]
Zn(II) Binding Studies (Fluorescence Spectroscopy). The dissociation constants, Kd, for Zn(II) binding were determined using a dual-metal buffering system, which affords concentrations of free Zn(II) in the nM range. […] The response was quantified by integrating the emission intensity from 505-650 nm and normalizing. […]
The binding affinities for Zinpyr-5 and Zinpyr-6 were determined using the dual-metal buffering system previously described. […]

[2] = Metal ion selectivity measurements of Zinpyr dyes; settings: 1 μM Zinpyr, divalent first-row transition metals and Cd(II)
Description: Metal Ion Selectivity Measurements. The metal ion selectivity of Zinpyr-5 and Zinpyr-6 for a number of divalent first-row transition metals, in addition to cadmium, is investigated using fluorescence spectroscopy. Aqueous metal ion solutions for Ca(II), Mg(II), Mn(II), Co(II), Ni(II) and Cd(II) are prepared from the chloride salts and Millipore water. The Cu(II) solution are prepared from copper sulfate and Fe(II) solutions are prepared immediately before use with ferrous ammonium sulfate and Millipore water that was thoroughly purged with Ar. In a typical experiment, 15 μL of a ˜10 mM metal solution is added to a 1 μM Zinpyr solution (3 mL) and the emission spectra is recorded with excitation at 498 nm (Zinpyr-5) or 500 nm (Zinpyr-6). […] of 10 mM ZnCl2 is then added and the emission spectra is obtained. The spectra are integrated from 505-650 nm (Zinpyr-5) or 450-650 nm (Zinpyr-6) and normalized.

[3] = UV-visible spectroscopy of Zinpyr dyes (excitation maxima, molar absorptivity); assay type: physicochemical; settings: for ε: at excitation maximum
Description: (§1) General Spectroscopic Methods. PIPES (piperazine-N,N′-bis(2-ethanesulfonic acid) from Calbiochem, KCl (99.997%), and ZnCl2 (99.999%) are purchased and used as received. All experiments for this Example Eight, with the exception of the pKa experiment, are conducted under stimulated physiological conditions using 50 mM PIPES, 100 mM KCl adjusted to pH 7 via drop-wise addition of KOH. Millipore water is used for all aqueous solutions, which are filtered through a 0.2 μm cellulose filter prior to use (buffered dye solutions should not be put through the filters because the dyes will get stuck). An Orion glass electrode, which is calibrated prior to each use, is used to determine solution pH. The accuracy of each micropipette is verified prior to use. Zinc solutions are prepared from 100 mM and 10 mM stock solutions in water (pH 5). The concentrations of the stock solutions is verified by spectrophotometric titration with 2,2′:6′,2″-terpyridine, which is was performed a minimum of three times per solution. In a typical titration, 0.5 μL aliquots of a 10 mM (nominal) Zn(II) solution in water is added to a 10 μM solution of terpyridine in 50 mM PIPES, 100 mM KCl, pH 7 prepared from a 100 mM stock solution in DMSO. The equivalence point at 321 nm and at 291 nm is determined and used to calculate the Zn(II) concentration. Stock solutions of Zinpyr-5 (0.76 mM) and Zinpyr-6 (0.41 mM) in DMSO are prepared, stored at −25° C., and thawed in the dark immediately prior to use. All spectral data are manipulated with the KaleidaGraph software package.
UV-Visible Spectroscopy. Excitation spectra are obtained using a Cary IE scanning spectrophotometer controlled by a Pentium PC running the manufacturer supplied software program. A circulating water bath is used during all acquisitions to maintain the temperature at 25.0° C.±0.1° C. All data are collected using a 600 nm/min scan speed and a 1 nm data interval. […] Molar absorptivity values are determined from a minimum of three titrations over a concentration range of 10 μM to 1 μM. […]

[4] = Quantum yield and emission measurements of Zinpyr dyes; assay type: physicochemical
Description: as §1
Fluorescence Spectroscopy. Emission spectra are obtained using a Hitachi F-3010 spectrofluorimeter linked to a Pentium PC running the SpectraCalc software package. A 150 W Xe lamp (Ushio Inc.) operating at a current of 5 A provides the excitation. A rhodamine quantum counter is used to normalize the spectra for excitation intensity, and manufacturer-supplied correction curves are used to normalize the emission spectra. Manufacturer supplied photomultiplier curves are used to correct for emission intensity. A circulating water bath is used during all experiments to regulate the temperature at 25.0° C.±0.1° C. All spectra are obtained using 3 nm slit widths and a 240 nm/min scan speed, and all samples are contained in a 1 cm×1 cm quartz cuvette with a 3.5 mL volume. All measurements are made in triplicate, with the exception of the Zinpyr-6 pKa titration, and on different days to assure the authenticity of the results.
Quantum Yield Measurements. The quantum yields of Zinpyr-5 and Zinpyr-6 are determined using a solution of fluorescein in 0.1 N NaOH (φ=0.95) as a reference. In a typical experiment, a 6 mL solution of 1 μM Zinpyr is prepared. For metal-free studies, 6 μL of 100 mM K4EDTA is added to chelate any adventitious metal ions. To determine the quantum efficiencies of the metal-bound dyes, either 2 μL (Zinpyr-5) or 6 μL (Zinpyr-6) of a 100 mM ZnCl2 stock solution is added to a 1 μM Zinpyr solution. The concentration of the reference solution is adjusted to match the excitation spectra of the Zinpyr dye, and the appropriate excitation wavelength is determined from where the reference and probe excitation spectra intersect. Excitation is provided at 497 nm (Zinpyr-5 and Zinpyr-6, metal-free), 491 nm (Zinpyr-5, metal-bound), or 493 (Zinpyr-6, metal-bound). Emission spectra are integrated from 450-650 nm and the quantum yields were calculated using the standard equation. Godwin, H. A.; Berg, J. M. J. Am. Chem. Soc. 1996, 118, 6514-6515.

[5] = Protonation constants that affect fluorescence of Zinpyr dyes; assay type: physicochemical; settings: for pKa: aqueous solution of 100 mM KCl, 10 mM KOH, Zinpyr-6 value estimated from preliminary results
Description: Studies of Protonation Constants that Effect Fluorescence. The apparent protonation constants that affect fluorescence are determined by plotting the integrated emission intensity versus pH from ˜12.5 to 2. In a typical experiment, a 30 mL solution of 1 μM Zinpyr in 100 mM KCl, 10 mM KOH is adjusted to pH 12.5 by drop-wise addition of KOH. Aliquots of 6 N, 2 N, 1 N, 0.5 N, 0.5 N, 0.1 N, and 0.01 N HCl are added to achieve pH changes of approximately […], and the emission spectrum is gathered at each interval. The overall volume change for each experiment is monitored so as not to exceed ˜3%. Excitation is provided at 498 nm for Zinpyr-5 and at 500 nm for Zinpyr-6. Data is integrated from 505 nm to 650 nm, normalized and plotted against pH. The data were fit to the non-linear expression previously described. Godwin, H. A.; Berg, J. M. J. Am. Chem. Soc. 1996, 118, 6514-6515.

[6] = metal-free; reported elsewhere; cited from earlier work
[7] = reported elsewhere; cited from earlier work
[8] = tested on: HeLa cells; assay: Cell permeability studies using Zn-pyrithione, fluorescence microscopy; assay type: cell-based; settings: 5 μM ligand 30 min RT, 10 μM Zn^2+-pyrithione
Description: FIG. 10 depicts phase contrast (A) and fluorescence microscopy (B) visualization of HeLa cells treated with the ligands of Formula 101, 103, and 31 in the absence of zinc. Cells were bathed in 5 μM ligand for 30 min at RT, followed by untreated PBS for 10 min.
FIG. 11 depicts phase contrast (A) and fluorescence microscopy (B) visualization of HeLa cells treated with the ligands of Formula 101, 103, and 31 in the presence of zinc. Cells were bathed in 5 μM ligand for 30 min at RT, followed by 10 μM Zn^2+-pyrithione.
FIG. 12 depicts phase contrast (A) and fluorescence microscopy (B) visualization of HeLa cells treated with the ligands of Formula 100, 102, and 31 in the absence of zinc. Cells were bathed in 5 μM ligand for 30 min at RT, followed by untreated PBS for 10 min.
FIG. 13 depicts phase contrast (A) and fluorescence microscopy (B) visualization of HeLa cells treated with the ligands of Formula 100, 102, and 31 in the presence of zinc. Cells were bathed in 5 μM sensor for 30 min at RT, followed by 10 μM Zn^2+-pyrithione.

[9] = Extinction coefficients / absorption spectra in HEPES buffer; assay type: physicochemical; settings: for λmax (Abs, nm): HEPES 50 mM, pH 7.5, KCl 100 mM
Description: (§2) The above results were obtained using the following experimental methods. For all fluorescence experiments, the glassware was washed sequentially with 20% HNO3, deionized water, and ethanol before use. Purified water (resistivity […]) was obtained from a Millipore Milli-Q water purification system. Fluorophore stock solutions in DMSO were made up to concentrations of 1 mM and kept at 4° C. in 100-500 μL aliquots. Portions were thawed and diluted to the required concentrations immediately prior to each experiment. Fluorescence and absorption data were acquired in HEPES buffer (50 mM, pH 7.5, KCl 100 mM) except where otherwise noted. Solutions were transferred to clean, dry propylene containers for storage, and filtered through 0.25 μm syringe filters before data acquisition. Fluorescence spectra were measured from 475 nm to 650 nm. All measurements were performed in triplicate.
Extinction Coefficients. A 2 mL portion of HEPES buffer was titrated with 2 μL aliquots of 1 mM fluorophore stock solution and the absorption measured at each concentration. The absorbance at the maximum was plotted as a function of concentration, and the slope was taken as the extinction coefficient. The procedure was repeated using 1.9 mL portions of HEPES buffer containing 100 μL aliquots of 10 mM ZnCl2 solution.

[10] = Quantum yields / fluorescence emission against fluorescein standard; assay type: physicochemical; settings: for λmax (Em, nm): HEPES 50 mM, pH 7.5, KCl 100 mM; for Φ: fluorescein standard
Description: as §2
Quantum Yields. Quantum yields were calculated by recording UV-vis spectra of the fluorophore under study and a 1 μM fluorescein standard in 0.1 N NaOH to determine the wavelength where sample and fluorescein absorption were equal. The fluorescence spectrum of each was then recorded, exciting at the wavelength determined by uv-vis spectra comparison. The integrated emission of the sample was normalized to the fluorescein standard and multiplied by the standard quantum yield of 0.95. Brannon, J. H.; Magde, D. J. Phys. Chem. 1978, 82, 705-709.

[11] = Affinity of compound 30 for Zn2+; assay type: binding
[12] = metal-free, 50 mM PIPES, 100 mM KCl, pH 7

What does the source list for `O=C(O)c1ccccc1-c1c2cc(Cl)c(=O)cc-2oc2c(CNc3ccc(Cl)cc3CN(Cc3ccccn3)Cc3ccccn3)c(O)ccc12` [Zinpyr-6]?
increase in integrated emission [1]: 2.5- to 3 fold and ~3 fold; metal ion selectivity [2]: Zn(II) and Cd(II) selective; excitation maximum ([3]; Zn(II) bound): 495 nm; ε ([3]; Zn(II) bound): 98,000 M^−1 cm^−1; ε ([3]; metal-free): 88,600 M^−1 cm^−1; increase in brightness upon Zn(II) coordination [4]: 3.8 fold and 3.7 fold; increase in quantum efficiency upon addition of excess Zn(II) [4]: 3.4 fold; brightness (φ×ε) ([4]; Zn(II) bound): 33,000 M^−1 cm^−1; emission maximum ([4]; Zn(II) bound): 515 nm; quantum efficiency ([4]; Zn(II) bound): 0.34; brightness (φ×ε) ([4]; metal-free): 8,900 M^−1 cm^−1; emission maximum [4, 12]: 519 nm; quantum efficiency [4, 12]: 0.10; pH at which maximum emission is reached ([5]; Zinpyr-6 data preliminary): ~5; pKa ([5]; read-out: apparent pKa, first protonation event (fluorescence enhancement; tertiary amine)): ~10; pKa ([5]; read-out: apparent pKa, second protonation event (fluorescence enhancement; aniline nitrogen)): ~6.4; pKa ([5]; read-out: apparent pKa, third protonation event (fluorescence quenching)): ~4.6

For `COc1ccc(NCc2c(O)ccc3c(-c4ccccc4C(=O)O)c4cc(Cl)c(=O)cc-4oc23)c(CN(Cc2ccccn2)Cc2ccccn2)c1` [Zinpyr-3], which quantum efficiency [6] is on record?
Its quantum efficiency is 0.04.

And the “fluorescence change upon addition of Zn(II)” value [7]?
The value was “negligible”.

What does the source list for `O=C(O)c1ccc2c(c1)C(=O)OC21c2cc(Cl)c(O)c(CN(Cc3ccccn3)Cc3ccccn3)c2Oc2c1cc(Cl)c(O)c2CN(Cc1ccccn1)Cc1ccccn1` [Formula 101]?
uptake into cells [8]: not taken up by the cell; εmax ([9]; +Zn^2+ complex): 88000 M⁻¹ cm⁻¹; λmax (Abs, nm) ([9]; +Zn^2+ complex): 509 nm; εmax ([9]; free ligand): 81000 M⁻¹ cm⁻¹; λmax (Abs, nm) ([9]; free ligand): 520 nm; Brightness ([10]; +Zn^2+ complex): 5.5 × 10^4; λmax (Em, nm) ([10]; +Zn^2+ complex): 532 nm; Φ ([10]; +Zn^2+ complex): 0.62; Brightness ([10]; free ligand): 1.4 × 10^4; λmax (Em, nm) ([10]; free ligand): 536 nm; Φ ([10]; free ligand): 0.17

With `O=C(O)c1ccccc1-c1c2cc(Cl)c(=O)cc-2oc2cc(N(Cc3ccccn3)Cc3ccccn3)ccc12` [compound 30, 9-(o-Carboxyphenyl)-2-chloro-6-[bis(2-pyridylmethyl)amino]-3-xanthanone] as the compound, how does the “affinity for Zn^2+” value [11] read?
Its value is “weak”.
